Patent US6720423B2, “Dihydrobenzofuran and dihydrobenzothiophene 2,4-pentadienoic acid derivatives having selective activity for retinoid X (RXR) receptors” (Allergan, Inc., priority 2002, dated 2004)

Assays:
RARα = molecular target: T1, RARα (Homo sapiens, UniProt P10276); test: ligand binding assay, RARα; details: second entry of cell, read-out: RAR Bind. Ki (nM) α
T1 sequence (P10276 1-462): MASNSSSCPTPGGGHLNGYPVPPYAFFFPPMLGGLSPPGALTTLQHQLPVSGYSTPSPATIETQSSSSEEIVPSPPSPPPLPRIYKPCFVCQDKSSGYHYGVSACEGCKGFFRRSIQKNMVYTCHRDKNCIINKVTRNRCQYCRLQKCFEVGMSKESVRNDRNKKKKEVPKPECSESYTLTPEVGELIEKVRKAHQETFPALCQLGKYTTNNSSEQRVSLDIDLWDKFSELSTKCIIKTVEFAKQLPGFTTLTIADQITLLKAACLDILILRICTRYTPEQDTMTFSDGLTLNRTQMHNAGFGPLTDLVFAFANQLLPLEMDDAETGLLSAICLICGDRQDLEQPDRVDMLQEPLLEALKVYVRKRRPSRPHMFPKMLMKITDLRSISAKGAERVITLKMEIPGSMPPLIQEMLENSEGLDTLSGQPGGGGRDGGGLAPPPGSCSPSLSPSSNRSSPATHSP
From the text: (§1) A holoreceptor transactivation assay and a ligand binding assay which measure the antagonist/agonist like activity of the compounds of the invention, or their ability to bind to the several retinoid receptor subtypes, respectively, are described in published PCT Application No. WO WO93/11755 (particularly on pages 30-33 and 37-41) published on Jun. 24, 1993, the specification of which is also incorporated herein by reference. A detailed experimental procedure for holoreceptor transactivations has been described by Heyman et al. Cell 68, 397-406, (1992); Allegretto et al. J. Biol. Chem. 268, 26625-26633, and Mangelsdorf et al. The Retinoids: Biology, Chemistry and Medicine, pp 319-349, Raven Press Ltd., New York, which are expressly incorporated herein by reference. The results obtained in this assay are expressed in EC50 numbers, as they are also in the chimeric receptor transactivation assay. The results of ligand binding assay are expressed in Kd numbers. (See Cheng et al. Biochemical Pharmacology Vol. 22 pp 3099-3108, expressly incorporated herein by reference.)

RARγ = molecular target: T2, RARγ (Homo sapiens, UniProt P13631); test: ligand binding assay, RARγ; details: second entry of cell, read-out: RAR Bind. Ki (nM) γ
T2 sequence (P13631 1-454): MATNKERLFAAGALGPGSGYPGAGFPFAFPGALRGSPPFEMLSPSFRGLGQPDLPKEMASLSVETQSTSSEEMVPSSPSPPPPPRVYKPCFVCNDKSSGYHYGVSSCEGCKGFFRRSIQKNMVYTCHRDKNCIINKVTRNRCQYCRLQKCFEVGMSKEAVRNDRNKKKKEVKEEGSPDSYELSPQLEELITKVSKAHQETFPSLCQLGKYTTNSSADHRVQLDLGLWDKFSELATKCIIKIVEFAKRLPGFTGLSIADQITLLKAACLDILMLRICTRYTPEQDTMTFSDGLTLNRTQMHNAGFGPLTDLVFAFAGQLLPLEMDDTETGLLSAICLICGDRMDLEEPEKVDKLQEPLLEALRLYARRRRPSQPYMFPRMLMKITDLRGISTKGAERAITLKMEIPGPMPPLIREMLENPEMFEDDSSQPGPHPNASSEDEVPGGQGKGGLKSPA
From the text: as §1

RXRγ = molecular target: T3, RXRγ (UniProt P28705); test: receptor transactivation assay, RXRγ; type: cell-based; design: RXR Trans; other: RXRγ; first entry of cell; details: for EC50: first entry of cell, read-out: RXR Trans. EC50 (nM) γ; for RXR Trans. γ, number in parentheses after EC50: parenthesised number, not defined in the patent
T3 sequence (P28705 1-463): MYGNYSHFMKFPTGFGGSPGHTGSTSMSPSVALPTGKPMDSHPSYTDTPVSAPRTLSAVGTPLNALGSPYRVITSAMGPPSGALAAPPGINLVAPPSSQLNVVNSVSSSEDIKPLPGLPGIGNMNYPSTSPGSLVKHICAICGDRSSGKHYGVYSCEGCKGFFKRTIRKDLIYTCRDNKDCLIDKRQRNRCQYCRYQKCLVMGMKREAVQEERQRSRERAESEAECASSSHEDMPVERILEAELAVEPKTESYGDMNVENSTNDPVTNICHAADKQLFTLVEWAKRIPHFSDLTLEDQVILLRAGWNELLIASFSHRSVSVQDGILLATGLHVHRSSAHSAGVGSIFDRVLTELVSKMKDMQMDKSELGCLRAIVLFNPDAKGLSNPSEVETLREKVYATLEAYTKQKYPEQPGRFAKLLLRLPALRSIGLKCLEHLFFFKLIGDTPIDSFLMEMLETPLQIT
From the text: as §1

Row | SMILES | Ki (RARα) [nM] | Ki (RARγ) [nM] | EC50 (RXRγ) [nM] | RXR Trans. γ, number in parentheses after EC50 (RXRγ)
1 | CC(/C=C/[C@@H]1C[C@]1(C)c1ccc2c(c1)C(C)(C)CO2)=C\C(=O)O [Compound 2, (6S,7S)-7-[5-(3,3-Dimethyl-2,3-dihydro-benzofuranyl)]-6.7-methano-3-methyl-octa-2E,4E-dienoic Acid] | > 10000 | > 10000 | 2.7 | 119
2 | CCCCCCc1cc([C@@]2(C)C[C@H]2/C=C/C(C)=C/C(=O)O)cc2c1OCC2(C)C [Compound 18, (6S,7S)-7-[5-(3,3-Dimethyl-7-hexyl-2,3-dihydro-benzofuranyl)]-6,7-methano-3-methyl-octa-2E,4E-dienoic acid] | 12000 | 9260 | 0.36 | 99
3 | CC(/C=C/[C@@H]1C[C@]1(C)c1cc(CC(C)(C)C)c2c(c1)C(C)(C)CO2)=C\C(=O)O [Compound 12, 5-{(1S,2S) 2-[7-(2,2-Dimethyl-propyl)-3,3-dimethyl-2,3-dihydro-benzofuran-5-yl]-2-methyl-cyclopropyl}-3-methyl-penta-2E,4E-dienoic Acid] | 18000 | 8910 | 0.42 | 101
4 | CCCCC(=O)CCc1cc([C@@]2(C)C[C@H]2/C=C/C(C)=C/C(=O)O)cc2c1OCC2(C)C [Compound 40] | 11000 | > 10000 | 395 | 94
5 | CC(/C=C/[C@@H]1C[C@]1(C)c1cc(-c2c(C)cccc2C)c2c(c1)C(C)(C)CO2)=C\C(=O)O [Compound 24, 5-{(1 S 2S)-2-[7-(2,6-Dimethyl-phenyl)-3,3-dimethyl-2,3-dihydro-benzofuran-5-yl]-2-methyl-cyclopropyl}-3-methyl-penta-2E,4E-dienoic acid] | > 10000 | > 10000 | 0.86 | 105
6 | COc1ccc(-c2cc([C@@]3(C)C[C@H]3/C=C/C(C)=C/C(=O)O)cc3c2OCC3(C)C)cc1 [Compound 32, (E)-3-((E)-2-{(1S,2S)-2-[7-(4-Methoxy-phenyl)-3,3-dimethyl-2,3-dihydro-benzofuran-5-yl]-2-methyl-cyclopropyl}-vinyl)-but-2-enoic acid] | 29000 | > 10000 | 561 | 106
7 | CC(/C=C/[C@@H]1C[C@@H]1c1ccc2c(c1)C(C)(C)CO2)=C\C(=O)O [Compound 36, (E)-3-{(E)-2-F[(1S,2S)-2-(3,3-Dimethyl-2,3-dihydro-benzofuran-5-yl)-cyclopropyl]-vinyl}-but-2-enoic acid] | > 10000 | > 10000 | 743 | 109
8 | CC(/C=C/[C@@H]1C[C@]1(C)c1cc(CC2CCCCC2)c2c(c1)C(C)(C)CO2)=C\C(=O)O [Compound 16, (6S,7S)-7-[5-(7-Cyclohexylmethyl-3,3-dimethyl-2,3-dihydro-benzofuranyl)]-6,7-methano-3-methyl-octa-2E,4E-dienoic Acid] | 8800 | 12000 | 0.29 | 83
9 | CC(/C=C/[C@@H]1C[C@]1(C)c1cc(-c2ccc(F)cc2)c2c(c1)C(C)(C)CO2)=C\C(=O)O [Compound 34, (E)-3-((E)-2-{(1S,2S)-2-[7-(4-Fluoro-phenyl)-3,3-dimethyl-2,3-dihydro-benzofuran-5-yl]-2-methyl-cyclopropyl}-vinyl)-but-2-enoic acid] | 23000 | 25000 | 0.56 | 109
10 | CCCCCCCc1ccccc1-c1cc([C@@]2(C)C[C@H]2/C=C/C(C)=C/C(=O)O)cc2c1OCC2(C)C [Compound 28] | 2620 | 9540 | 850 | 88
11 | CC(/C=C/[C@@H]1C[C@]1(C)c1cc(C)c2c(c1)C(C)(C)CO2)=C\C(=O)O [Compound 4, (6S,7S)-7-[5-(3,3,7-Trimethyl-2,3-dihydro-benzofuranyl)]-6,7-methano-3-methyl-octa-2E,4E-dienoic acid] | > 10000 | > 10000 | 4.4 | 108
12 | CC(/C=C/[C@@H]1C[C@]1(C)c1cc(-c2ccc(C(C)(C)C)cc2)c2c(c1)C(C)(C)CO2)=C\C(=O)O [Compound 30, 5-{(1S, 2S)-2-[7-(4-tert-Butyl-phenyl)-3,3-dimethyl-2,3-dihydro-benzofuran-5-]-2-methyl-cyclopropyl}-3-methyl-pent-2E,4E-dienoic Acid] | > 10000 | > 10000 | > 1000 | 80
13 | CCCCC(O)CCc1cc([C@@]2(C)C[C@H]2/C=C/C(C)=C/C(=O)O)cc2c1OCC2(C)C (stereo partly drawn) [Compound 38, (E)-3-((E)-2-{(1S,2S)-2-[7-(3-Hydroxy-heptyl)-3,3-dimethyl-2,3-dihydro-benzofuran-5-yl]-2-methyl-cyclopropyl}-vinyl)-but-2-enoic acid] | > 10000 | > 10000 | 7680 | 142
14 | CC(/C=C/[C@@H]1C[C@]1(C)c1cc(Br)c2c(c1)C(C)(C)CO2)=C\C(=O)O [Compound 20, (6S,7S)-7-[5-(7-Bromo-3,3-dimethyl-2,3-dihydro-benzofuranyl)]-6,7-methano-3-methyl-octa-2E,4E-dienoic Acid] | > 10000 | > 10000 | 3.4 | 111
15 | CCc1cc([C@@]2(C)C[C@H]2/C=C/C(C)=C/C(=O)O)cc2c1OCC2(C)C [Compound 6] | > 30000 | 13000 | 0.56 | 85
16 | CC(/C=C/[C@@H]1C[C@]1(C)c1cc(-c2ccccc2)c2c(c1)C(C)(C)CO2)=C\C(=O)O [Compound 22, 6S,7S)-7-[5-(3,3-Dimethyl-7-phenyl-2,3-dihydro-benzofuranyl)1-6,7-methano-3-methyl-octa-2E,4E-dienoic acid] | > 10000 | > 5260 | 12.8 | 110
17 | CC(/C=C/[C@@H]1C[C@]1(C)c1cc(Cc2ccccc2)c2c(c1)C(C)(C)CO2)=C\C(=O)O [Compound 14, (6S,7S)-7-[5-(7-Benzyl-3,3-dimethyl-2,3-dihydro-benzofuranyl)]-6,7-methano-3-methyl-octa-2E,4E-dienoic Acid] | 8720 | 6650 | 0.0973 | 105
18 | CC(/C=C/[C@@H]1C[C@]1(C)c1cc(C(C)C)c2c(c1)C(C)(C)CO2)=C\C(=O)O [Compound 8, (6S,7S)-7-[5-(3,3-Dimethyl-7-iso-propyl-2,3-dihydro-benzofuranyl)]-6,7-methano-3-methyl-octa-2E,4E-dienoic Acid] | 42000 | 7510 | 0.23 | 108
